# According to patent publication US20220339143A1, “TAK-925 FOR USE IN TREATING NARCOLEPSY” (Takeda Pharmaceutical Company Limited, priority 2019, published 2022):
# System: patients with narcolepsy type 1 (NT1)
# Assay: Subjective daytime sleepiness as assessed by Karolinska Sleepiness Scale (KSS), single dose (Cohorts 5, 6, 7)
# Format: in vivo, human
# Settings: for KSS Change from Baseline, Mean / KSS Change from Baseline, Median / KSS Observed Value at Visit, Mean / KSS Observed Value at Visit, Median: Cmpd A 5 mg (N = 6)
# Procedure: Daytime sleepiness as assessed by the Karolinska Sleepiness Scale (KSS).
# Daytime sleepiness as assessed by KSS at predose and hourly until 11 hours after the start of infusion is presented in Table 13 as summary, in Table 14 as ANOVA and in Table 15 as ANOVA of change from baseline.
smiles,measurement,setting,value
"COC(=O)N1CCC[C@H](NS(C)(=O)=O)[C@@H]1CO[C@H]1CC[C@@H](c2ccccc2)CC1 [Compound A, methyl (2R,3S)-3-((methylsulfonyl)amino)-2-(((cis-4-phenylcyclohexyl)oxy)methyl)piperidine-1-carboxylate]","LS mean difference (95% CI) of KSS vs placebo during the 9 hour infusion, upper end of range",5 mg,"−0.667 (−2.641, 1.307)"
same,"Change from Baseline in KSS, ANOVA Estimate (Cmpd A - Placebo)","5 mg, 1 hr",−2.833
same,"KSS, ANOVA Estimate (Cmpd A - Placebo)","5 mg, 1 hr",−2.000
same,"Change from Baseline in KSS, ANOVA Estimate (Cmpd A - Placebo)","5 mg, 2 hr",−4.333
same,"KSS, ANOVA Estimate (Cmpd A - Placebo)","5 mg, 2 hr",−3.500
same,"Change from Baseline in KSS, ANOVA Estimate (Cmpd A - Placebo)","5 mg, 3 hr",−2.167
same,"KSS, ANOVA Estimate (Cmpd A - Placebo)","5 mg, 3 hr",−1.333
same,"Change from Baseline in KSS, ANOVA Estimate (Cmpd A - Placebo)","5 mg, 4 hr",−4.167
same,"KSS, ANOVA Estimate (Cmpd A - Placebo)","5 mg, 4 hr",−3.333
same,"Change from Baseline in KSS, ANOVA Estimate (Cmpd A - Placebo)","5 mg, 5 hr",−3.500
same,"KSS, ANOVA Estimate (Cmpd A - Placebo)","5 mg, 5 hr",−2.667
same,"Change from Baseline in KSS, ANOVA Estimate (Cmpd A - Placebo)","5 mg, 6 hr",−4.333
same,"KSS, ANOVA Estimate (Cmpd A - Placebo)","5 mg, 6 hr",−3.500
same,"Change from Baseline in KSS, ANOVA Estimate (Cmpd A - Placebo)","5 mg, 7 hr",−4.333
same,"KSS, ANOVA Estimate (Cmpd A - Placebo)","5 mg, 7 hr",−3.500
same,"Change from Baseline in KSS, ANOVA Estimate (Cmpd A - Placebo)","5 mg, 8 hr",−3.500
same,"KSS, ANOVA Estimate (Cmpd A - Placebo)","5 mg, 8 hr",−2.667
same,"Change from Baseline in KSS, ANOVA Estimate (Cmpd A - Placebo)","5 mg, 9 hr",−1.500
same,"KSS, ANOVA Estimate (Cmpd A - Placebo)","5 mg, 9 hr",−0.667
same,"Change from Baseline in KSS, ANOVA Estimate (Cmpd A - Placebo)","5 mg, 10 hr",−2.000
same,"KSS, ANOVA Estimate (Cmpd A - Placebo)","5 mg, 10 hr",−1.167
same,"Change from Baseline in KSS, ANOVA Estimate (Cmpd A - Placebo)","5 mg, 11 hr",−0.167
same,"KSS, ANOVA Estimate (Cmpd A - Placebo)","5 mg, 11 hr",0.667
same,"LS mean difference (95% CI) of KSS vs placebo during the 9 hour infusion, lower end of range","5 mg, at 2 hour, 6 hour and 7 hour after the start of infusion",−3.500
same,"LS mean difference (95% CI) of KSS vs placebo during the 9 hour infusion, lower end of range",11.2 mg,"−4.000 (−7.331, −0.669)"
same,"LS mean difference (95% CI) of KSS vs placebo during the 9 hour infusion, upper end of range",11.2 mg,"−1.500 (−3.439, 0.439)"
same,"Change from Baseline in KSS, ANOVA Estimate (Cmpd A - Placebo)","11.2 mg, 1 hr",−4.500
same,"KSS, ANOVA Estimate (Cmpd A - Placebo)","11.2 mg, 1 hr",−3.500
same,"Change from Baseline in KSS, ANOVA Estimate (Cmpd A - Placebo)","11.2 mg, 2 hr",−4.500
same,"KSS, ANOVA Estimate (Cmpd A - Placebo)","11.2 mg, 2 hr",−3.500
same,"Change from Baseline in KSS, ANOVA Estimate (Cmpd A - Placebo)","11.2 mg, 3 hr",−2.500
same,"KSS, ANOVA Estimate (Cmpd A - Placebo)","11.2 mg, 3 hr",−1.500
same,"Change from Baseline in KSS, ANOVA Estimate (Cmpd A - Placebo)","11.2 mg, 4 hr",−5.000
same,"KSS, ANOVA Estimate (Cmpd A - Placebo)","11.2 mg, 4 hr",−4.000
same,"Change from Baseline in KSS, ANOVA Estimate (Cmpd A - Placebo)","11.2 mg, 5 hr",−4.000
same,"KSS, ANOVA Estimate (Cmpd A - Placebo)","11.2 mg, 5 hr",−3.000
same,"Change from Baseline in KSS, ANOVA Estimate (Cmpd A - Placebo)","11.2 mg, 6 hr",−4.000
same,"KSS, ANOVA Estimate (Cmpd A - Placebo)","11.2 mg, 6 hr",−3.000
same,"Change from Baseline in KSS, ANOVA Estimate (Cmpd A - Placebo)","11.2 mg, 7 hr",−4.500
same,"KSS, ANOVA Estimate (Cmpd A - Placebo)","11.2 mg, 7 hr",−3.500
same,"Change from Baseline in KSS, ANOVA Estimate (Cmpd A - Placebo)","11.2 mg, 8 hr",−3.500
same,"KSS, ANOVA Estimate (Cmpd A - Placebo)","11.2 mg, 8 hr",−2.500
same,"Change from Baseline in KSS, ANOVA Estimate (Cmpd A - Placebo)","11.2 mg, 9 hr",−3.000
same,"KSS, ANOVA Estimate (Cmpd A - Placebo)","11.2 mg, 9 hr",−2.000
same,"Change from Baseline in KSS, ANOVA Estimate (Cmpd A - Placebo)","11.2 mg, 10 hr",−2.500
same,"KSS, ANOVA Estimate (Cmpd A - Placebo)","11.2 mg, 10 hr",−1.500
same,"Change from Baseline in KSS, ANOVA Estimate (Cmpd A - Placebo)","11.2 mg, 11 hr",−2.000
same,"KSS, ANOVA Estimate (Cmpd A - Placebo)","11.2 mg, 11 hr",−1.000
same,"LS mean difference (95% CI) of KSS vs placebo during the 9 hour infusion, lower end of range",44.8 mg,"−6.947 (−9.139, −4.756)"
same,"LS mean difference (95% CI) of KSS vs placebo during the 9 hour infusion, upper end of range",44.8 mg,"−2.868 (−6.851, 1.114)"
same,"Change from Baseline in KSS, ANOVA Estimate (Cmpd A - Placebo)","44.8 mg, 1 hr",−5.237
same,"KSS, ANOVA Estimate (Cmpd A - Placebo)","44.8 mg, 1 hr",−6.947
same,"Change from Baseline in KSS, ANOVA Estimate (Cmpd A - Placebo)","44.8 mg, 2 hr",−3.053
same,"KSS, ANOVA Estimate (Cmpd A - Placebo)","44.8 mg, 2 hr",−4.763
same,"Change from Baseline in KSS, ANOVA Estimate (Cmpd A - Placebo)","44.8 mg, 3 hr",−1.553
same,"KSS, ANOVA Estimate (Cmpd A - Placebo)","44.8 mg, 3 hr",−3.263
same,"Change from Baseline in KSS, ANOVA Estimate (Cmpd A - Placebo)","44.8 mg, 4 hr",−2.184
same,"KSS, ANOVA Estimate (Cmpd A - Placebo)","44.8 mg, 4 hr",−3.895
same,"Change from Baseline in KSS, ANOVA Estimate (Cmpd A - Placebo)","44.8 mg, 5 hr",−2.026
same,"KSS, ANOVA Estimate (Cmpd A - Placebo)","44.8 mg, 5 hr",−3.737
same,"Change from Baseline in KSS, ANOVA Estimate (Cmpd A - Placebo)","44.8 mg, 6 hr",−1.158
same,"KSS, ANOVA Estimate (Cmpd A - Placebo)","44.8 mg, 6 hr",−2.868
same,"Change from Baseline in KSS, ANOVA Estimate (Cmpd A - Placebo)","44.8 mg, 7 hr",−3.737
same,"KSS, ANOVA Estimate (Cmpd A - Placebo)","44.8 mg, 7 hr",−5.447
same,"Change from Baseline in KSS, ANOVA Estimate (Cmpd A - Placebo)","44.8 mg, 8 hr",−2.921
same,"KSS, ANOVA Estimate (Cmpd A - Placebo)","44.8 mg, 8 hr",−4.632
same,"Change from Baseline in KSS, ANOVA Estimate (Cmpd A - Placebo)","44.8 mg, 9 hr",−2.868
same,"KSS, ANOVA Estimate (Cmpd A - Placebo)","44.8 mg, 9 hr",−4.579
same,"Change from Baseline in KSS, ANOVA Estimate (Cmpd A - Placebo)","44.8 mg, 10 hr",−0.632
same,"KSS, ANOVA Estimate (Cmpd A - Placebo)","44.8 mg, 10 hr",−2.342
same,"Change from Baseline in KSS, ANOVA Estimate (Cmpd A - Placebo)","44.8 mg, 11 hr",0.974
same,"KSS, ANOVA Estimate (Cmpd A - Placebo)","44.8 mg, 11 hr",−0.737
same,"KSS Change from Baseline, Mean",1 hr after start of infusion,−2.3
same,"KSS Change from Baseline, Median",1 hr after start of infusion,−2.5
same,"KSS Observed Value at Visit, Mean",1 hr after start of infusion,2.7
same,"KSS Observed Value at Visit, Median",1 hr after start of infusion,2.5
same,"KSS Change from Baseline, Mean",2 hr after start of infusion,−2.8
same,"KSS Change from Baseline, Median",2 hr after start of infusion,−2.5
same,"KSS Observed Value at Visit, Mean",2 hr after start of infusion,2.2
same,"KSS Observed Value at Visit, Median",2 hr after start of infusion,2.0
same,"KSS Change from Baseline, Mean",3 hr after start of infusion,−3.2
same,"KSS Change from Baseline, Median",3 hr after start of infusion,−3.5
same,"KSS Observed Value at Visit, Mean",3 hr after start of infusion,1.8
same,"KSS Observed Value at Visit, Median",3 hr after start of infusion,1.5
same,"KSS Change from Baseline, Mean",4 hr after start of infusion,−2.8
same,"KSS Change from Baseline, Median",4 hr after start of infusion,−2.5
same,"KSS Observed Value at Visit, Mean",4 hr after start of infusion,2.2
same,"KSS Observed Value at Visit, Median",4 hr after start of infusion,1.5
same,"KSS Change from Baseline, Mean",5 hr after start of infusion,−3.0
same,"KSS Change from Baseline, Median",5 hr after start of infusion,−3.0
same,"KSS Observed Value at Visit, Mean",5 hr after start of infusion,2.0
same,"KSS Observed Value at Visit, Median",5 hr after start of infusion,2.0
same,"KSS Change from Baseline, Mean",6 hr after start of infusion,−3.2
same,"KSS Change from Baseline, Median",6 hr after start of infusion,−3.5
same,"KSS Observed Value at Visit, Mean",6 hr after start of infusion,1.8
same,"KSS Observed Value at Visit, Median",6 hr after start of infusion,1.5
same,"KSS Change from Baseline, Mean",7 hr after start of infusion,−2.5
same,"KSS Change from Baseline, Median",7 hr after start of infusion,−2.5
same,"KSS Observed Value at Visit, Mean",7 hr after start of infusion,2.5
same,"KSS Observed Value at Visit, Median",7 hr after start of infusion,2.5
same,"KSS Change from Baseline, Mean",8 hr after start of infusion,−2.7
same,"KSS Change from Baseline, Median",8 hr after start of infusion,−3.0
same,"KSS Observed Value at Visit, Mean",8 hr after start of infusion,2.3
